“And” between values parts separate entries of the source, which are not always exact repeats. Identical values can stand only once.
Assays:
[1] = Body weight measurement in the 17-day experiment; type: in vivo, Swiss albino mice; settings: for body weight Mean / body weight: mouse, 1.25 mg/kg
Description: (§1) The Swiss albino mice were used in the experiment. AZ-853 and AZ-861 were injected once daily for 16 consecutive days. On the 1st and 15th day the administration of the compounds, 18-h spontaneous animal activity was registered (see below). FST, as described earlier, was performed on the 14th day just before the next treatment. To ensure that the effects observed in FST are not the result of increased motility of animals, on the 13th day, just before the next administration, the locomotor activity was measured as described earlier, from 2 to 6 min after test start, i.e. in the period identical to the duration of FST. Blood and organ collection was performed on the 17th day at 24 h after the last dose and fasting.
The body weight was measured daily immediately prior to administration of the drugs. On the 17th day, the blood was collected from the Swiss albino mice sacrificed by decapitation 20 min after i.p. administration of heparin (2500 units/mouse) and then centrifuged at 600 × g (15 min, 4°C) to separate plasma. The liver, heart, and kidney were also collected and weighed.

mice = test: Spontaneous activity monitoring (RFID TraffiCage, 18 h); type: in vivo, Swiss albino mice; settings: for Mean counts, spontaneous activity: 1.25 mg/kg
Description: as §1
The spontaneous activity of the mice was measured on the 1st and 15th day of the treatment with a special, innovative radiofrequency identification system (RFID-system)—TraffiCage (TSE-Systems, Germany). The test was conducted according to the method described in the literature. The animals had the transmitter (RFID) subcutaneously implanted, which tracked the time they spent in different areas of the cage. The data obtained were then grouped in a special computer program.

[2] = molecular target: T1, human serotonin 5-HT1A receptor (Homo sapiens, UniProt P08908); test: ERK1/2 phosphorylation (SureFire Alpha LISA, CHO-K1 5HT1AR cells)
T1 sequence (P08908 1-422): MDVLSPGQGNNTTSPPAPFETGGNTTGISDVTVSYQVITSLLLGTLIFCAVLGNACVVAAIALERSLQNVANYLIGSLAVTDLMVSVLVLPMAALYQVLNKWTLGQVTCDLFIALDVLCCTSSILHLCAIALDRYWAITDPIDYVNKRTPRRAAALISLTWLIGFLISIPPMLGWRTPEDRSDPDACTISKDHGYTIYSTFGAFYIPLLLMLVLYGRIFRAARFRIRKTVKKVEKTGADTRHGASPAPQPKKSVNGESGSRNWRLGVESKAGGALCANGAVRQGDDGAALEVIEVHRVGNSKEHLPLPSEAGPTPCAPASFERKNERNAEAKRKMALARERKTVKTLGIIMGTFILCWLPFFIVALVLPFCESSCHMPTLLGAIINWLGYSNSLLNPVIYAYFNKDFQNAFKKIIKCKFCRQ
Description: CHO-K1 cell line transfected with 5-HT1A receptor, were commercially obtained from Perkin Elmer (Cat. No. ES-310-C, Lot Number M2W-C1). Cells were cultured according to manufacturer’s instruction. […] Geneticin-resistant clones were obtained by limit dilution and compared for receptor expression levels using a radioligand binding assay. The clone with the highest receptor expression level was selected for characterization in binding and functional assays. […] Corresponding Protein Sequence: Identical to GenBank NP_000515.2. Receptor expression level (BMAX): Estimated to be 3.7 ± 2.3 pmol/mg protein, using [3H] […] This cell line tested negative for mycoplasma.

[3] = 18-h monitoring, AZ-853 0.625, AZ-861 1.25 mg/kg b.w./day

Compound: Cn1c(=O)c2c(nc3n(CCCCN4CCN(c5cccc(C(F)(F)F)c5)CC4)ccn23)n(C)c1=O [AZ-861, 1,3-dimethyl-8-(4-(4-(3-(trifluoromethyl)phenyl)piperazin-1-yl)butyl)-1H-imidazo[2,1-f]purine-2,4(3H,8H)-dione]
- effect on body weight ([1]; mice, repeated i.p. once daily, AZ-853 0.625 mg/kg (from 10th day), AZ-861 1.25 mg/kg (2nd, 3rd, 4th day)): slight and significant decrease in body weight
- body weight Mean ([1]; day 1, group mean): 23.19 g
- body weight ([1]; day 1, individual mouse): 20.6 g and 21.8 g and 22.1 g and 24.2 g and 24.0 g and 23.4 g and 23.1 g and 24.9 g and 26.3 g and 21.5 g
- body weight Mean ([1]; day 2, group mean): 23.05 g
- body weight ([1]; day 2, individual mouse): 20.7 g and 22.8 g and 22.6 g and 24.2 g and 23.5 g (2×) and 23.1 g and 23.6 g and 24.9 g and 21.6 g
- body weight Mean ([1]; day 3, group mean): 23.20 g
- body weight ([1]; day 3, individual mouse): 21.0 g (2×) and 22.0 g and 23.0 g and 24.0 g (5×) and 25.0 g
- body weight Mean ([1]; day 4, group mean): 23.30 g
- body weight ([1]; day 4, individual mouse): 22.0 g (2×) and 23.0 g (3×) and 21.0 g and 24.0 g (2×) and 25.0 g and 26.0 g
- body weight Mean ([1]; day 5, group mean): 23.70 g
- body weight ([1]; day 5, individual mouse): 21.6 g and 22.5 g and 22.7 g and 24.5 g and 24.0 g and 23.5 g and 24.9 g and 26.3 g and 25.9 g and 21.1 g
- body weight Mean ([1]; day 6, group mean): 23.76 g
- body weight ([1]; day 6, individual mouse): 21.6 g (2×) and 22.1 g and 22.6 g and 25.1 g and 24.3 g and 23.0 g and 25.3 g and 25.6 g and 26.4 g
- body weight Mean ([1]; day 7, group mean): 23.90 g
- body weight ([1]; day 7, individual mouse): 22.0 g (3×) and 23.0 g and 25.0 g (2×) and 24.0 g (2×) and 26.0 g (2×)
- body weight Mean ([1]; day 8, group mean): 24.10 g
- body weight ([1]; day 8, individual mouse): 23.0 g (3×) and 25.0 g (2×) and 24.0 g (2×) and 26.0 g (2×) and 22.0 g
- body weight Mean ([1]; day 9, group mean): 24.40 g
- body weight ([1]; day 9, individual mouse): 23.0 g (4×) and 26.0 g (3×) and 25.0 g (2×) and 24.0 g
- body weight Mean ([1]; day 10, group mean): 24.31 g
- body weight ([1]; day 10, individual mouse): 22.5 g and 23.1 g (2×) and 25.2 g and 24.7 g and 24.0 g and 25.0 g and 26.6 g and 26.8 g and 22.1 g
- body weight Mean ([1]; day 11, group mean): 24.47 g
- body weight Mean ([1]; day 12, group mean): 24.59 g
- body weight Mean ([1]; day 13, group mean): 24.59 g
- body weight Mean ([1]; day 14, group mean): 24.73 g
- body weight Mean ([1]; day 15, group mean): 25.31 g
- spontaneous activity after the 1st administration vs. control (mice; [3]): No effect on locomotor activity
- spontaneous activity after the 15th administration vs. control (mice; [3]): significant decrease in spontaneous activity
- Mean counts, spontaneous activity (mice; after 1st administration, 1 h after administration): 223.1 counts
- Mean counts, spontaneous activity (mice; after 1st administration, 2 h after administration): 212.3 counts
- Mean counts, spontaneous activity (mice; after 1st administration, 3 h after administration): 190.0 counts
- Mean counts, spontaneous activity (mice; after 1st administration, 4 h after administration): 112.6 counts
- Mean counts, spontaneous activity (mice; after 1st administration, 5 h after administration): 125.9 counts
- Mean counts, spontaneous activity (mice; after 1st administration, 6 h after administration): 188.8 counts
- Mean counts, spontaneous activity (mice; after 1st administration, 7 h after administration): 229.5 counts
- Mean counts, spontaneous activity (mice; after 1st administration, 8 h after administration): 268.3 counts
- Mean counts, spontaneous activity (mice; after 1st administration, 9 h after administration): 274.6 counts
- Mean counts, spontaneous activity (mice; after 1st administration, 10 h after administration): 298.0 counts
- Mean counts, spontaneous activity (mice; after 1st administration, 11 h after administration): 311.6 counts
- Mean counts, spontaneous activity (mice; after 1st administration, 12 h after administration): 274.9 counts
- Mean counts, spontaneous activity (mice; after 1st administration, 13 h after administration): 290.8 counts
- Mean counts, spontaneous activity (mice; after 1st administration, 14 h after administration): 267.1 counts
- Mean counts, spontaneous activity (mice; after 1st administration, 15 h after administration): 232.3 counts
- Mean counts, spontaneous activity (mice; after 1st administration, 16 h after administration): 255.3 counts
- Mean counts, spontaneous activity (mice; after 1st administration, 17 h after administration): 318.8 counts
- Mean counts, spontaneous activity (mice; after 1st administration, 18 h after administration): 275.9 counts
- Mean counts, spontaneous activity (mice; after 15th administration, 1 h after administration): 228.5 counts
- Mean counts, spontaneous activity (mice; after 15th administration, 2 h after administration): 121.0 counts
- Mean counts, spontaneous activity (mice; after 15th administration, 3 h after administration): 91.6 counts
- Mean counts, spontaneous activity (mice; after 15th administration, 4 h after administration): 149.1 counts
- Mean counts, spontaneous activity (mice; after 15th administration, 5 h after administration): 154.4 counts
- Mean counts, spontaneous activity (mice; after 15th administration, 6 h after administration): 159.0 counts
- Mean counts, spontaneous activity (mice; after 15th administration, 7 h after administration): 185.0 counts
- Mean counts, spontaneous activity (mice; after 15th administration, 8 h after administration): 140.4 counts
- Mean counts, spontaneous activity (mice; after 15th administration, 9 h after administration): 144.0 counts
- Mean counts, spontaneous activity (mice; after 15th administration, 10 h after administration): 195.7 counts
- Mean counts, spontaneous activity (mice; after 15th administration, 11 h after administration): 177.3 counts
- Mean counts, spontaneous activity (mice; after 15th administration, 12 h after administration): 236.1 counts
- Mean counts, spontaneous activity (mice; after 15th administration, 13 h after administration): 169.1 counts
- Mean counts, spontaneous activity (mice; after 15th administration, 14 h after administration): 242.3 counts
- Mean counts, spontaneous activity (mice; after 15th administration, 15 h after administration): 172.6 counts
- Mean counts, spontaneous activity (mice; after 15th administration, 16 h after administration): 218.9 counts
- Mean counts, spontaneous activity (mice; after 15th administration, 17 h after administration): 210.1 counts
- Mean counts, spontaneous activity (mice; after 15th administration, 18 h after administration): 244.6 counts
- EC50 [2]: 1.15 nM
- Emax ([2]; CHO-K1, read-out: Emax (%) ± SEM, agonist mode): 76 ± 1.3%
- decreased efficacy as compared to 5-HT ([2]; p-ERK1/2): 1.3 fold
- increased potency as compared to 5-HT ([2]; p-ERK1/2): 9.1 fold

— publication PMC7413516, “Antidepressant-like activity and safety profile evaluation of 1H-imidazo[2,1-f]purine-2,4(3H,8H)-dione derivatives as 5-HT1A receptor partial agonists” (PLoS ONE, 2020)
